SMILES strings stand for the structures. Structures can show the parent of a compound that is named as a salt.

Among the data in patent US7378413B2, “2-amino-3-(alkyl)-pyrimidone derivatives” (Sanofi Aventis, priority 2000, dated 2008) are melting point values, retold here.

In turn, `CCCCCCCCNc1nc(-c2ccncc2)cc(=O)n1C` had a melting point of 114 to 116 °C.

The compound `Cn1c(NCc2cccc(CN)c2)nc(-c2ccncc2)cc1=O` (as salt: hydrochloride) gave a melting point of 193 to 197 °C.

`NCCCCCCNc1nc(-c2ccncc2)cc(=O)n1CCCc1ccccc1` (as salt: hydrochloride) returned a melting point of 142 to 143 °C.

The compound `NCCCCCCNc1nc(-c2ccncc2)cc(=O)n1CCc1ccccc1` (as salt: hydrochloride) displayed a melting point of 225 to 228 °C.

Compound `NCCCCCCn1c(NCCCc2ccccc2)nc(-c2ccncc2)cc1=O` (as salt: hydrochloride) displayed a melting point of 192 to 195 °C.

`NCCCCCCn1c(NCCc2ccccc2)nc(-c2ccncc2)cc1=O` (as salt: hydrochloride) showed a melting point of 125 to 127 °C.

As for `CN(C)CCn1c(NCCCc2ccccc2)nc(-c2ccncc2)cc1=O` (as salt: hydrochloride), the melting point fell in the range of 212 to 215 °C.

In the case of `NCCCCCCNc1nc(-c2ccncc2)cc(=O)n1Cc1ccccc1` (as salt: hydrochloride), the melting point was in the range of 292 to 298 °C.

Take `Cn1c(NCc2cccc(OCCCN)c2)nc(-c2ccncc2)cc1=O` (as salt: hydrochloride) [Compound 26, 2-[[[3-(3-aminopropoxy)phenyl]methyl]amino]-3-methyl-6-pyridin-4-ylpyrimidin-4(3H)-one]: the melting point was 193 to 196 °C.

Take `Cn1c(NCCCCCN)nc(-c2ccncc2)cc1=O` (as salt: hydrochloride) [Compound 40, 2-(5-Amino-pentylamino)-3-methyl-6-pyridin-4-yl-3H-pyrimidin-4-one]: the melting point lay within 259 to 262 °C.

`NCCCCNc1nc(-c2ccncc2)cc(=O)n1CCCc1ccccc1` (as salt: hydrochloride) [Compound 41, 2-(4-Amino-butylamino)-3-(3-phenyl-propyl)-6-pyridin-4-yl-3H-pyrimidin-4-one] yielded a melting point of 134 to 136 °C.

In the case of `NCCCCCNc1nc(-c2ccncc2)cc(=O)n1CCc1ccccc1` (as salt: hydrochloride) [Compound 43, 2-(5-Amino-pentylamino)-3-phenethyl-6-pyridin-4-yl-3H-pyrimidin-4-one], the melting point is 235 to 238 °C.

Compound `NCCCCNc1nc(-c2ccncc2)cc(=O)n1CCc1ccccc1` (as salt: hydrochloride) [Compound 45, 2-(4-Amino-butylamino)-3-phenethyl-6-pyridin-4-yl-3H-pyrimidin-4-one] yielded a melting point of 246 to 248 °C.

`CCCCCCCCCCNc1nc(-c2ccncc2)cc(=O)n1C` (as salt: hydrochloride) [Compound 53, 2-Decylamino-3-methyl-6-pyridin-4-yl-3H-pyrimidin-4-one]: the melting point was in the range of 162 to 164 °C.

In turn, `CN(CCCC1CCCCC1)c1nc(-c2ccncc2)cc(=O)n1C` (as salt: hydrochloride) [Compound 68, 2-[(3-Cyclohexyl-propyl)-methyl-amino]-3-methyl-6-pyridin-4-yl-3H-pyrimidin-4-one] had a melting point of 188 to 191 °C.

Regarding `Cn1c(NCc2cccc(OCCC3CCNCC3)c2)nc(-c2ccncc2)cc1=O` (as salt: hydrochloride) [Compound 72, 3-methyl-2-[3-(2-piperidin-4-yl-ethoxy)-benzylamino]-6-pyridin-4-yl-3H-pyrimidin-4-one], the melting point lay in the range of 225 to 232 °C.

Regarding `CNCc1ccc(CCN(C)c2nc(-c3ccncc3)cc(=O)n2C)cc1` (as salt: hydrochloride) [Compound 75, 3-Methyl-2-{methyl-[2-(4-methylaminomethyl-phenyl)-ethyl]-amino}-6-pyridin-4-yl-3H-pyrimidin-4-one], the melting point is 157 to 160 °C.

`Cn1c(N(CCCN)CCCc2ccccc2)nc(-c2ccncc2)cc1=O` (as salt: hydrochloride) [Compound 77, 2-[(3-Amino-propyl)-(3-phenyl-propyl)-amino]-3-methyl-6-pyridin-4-yl-3H-pyrimidin-4-one] showed a melting point of 185 to 189 °C.

Consider `NCCCCCn1c(NCCCc2ccccc2)nc(-c2ccncc2)cc1=O` (as salt: hydrochloride) [Compound 79, 3-(5-Amino-pentyl)-2-(3-phenyl-propylamino)-6-pyridin-4-yl-3H-pyrimidin-4-one], for which the melting point lay in the range of 123 to 126 °C.

In turn, `NCCCCn1c(NCCCc2ccccc2)nc(-c2ccncc2)cc1=O` (as salt: hydrochloride) [Compound 80, 3-(4-Amino-butyl)-2-(3-phenyl-propylamino)-6-pyridin-4-yl-3H-pyrimidin-4-one] gave a melting point of 124 to 127 °C.

Compound `Cn1c(NCc2cccc(OCCCc3ccncc3)c2)nc(-c2ccncc2)cc1=O` (as salt: hydrochloride) [Compound 81, 3-Methyl-6-pyridin-4-yl-2-[3-(3-pyridin-4-yl-propoxy)-benzylamino]-3H-pyrimidin-4-one] displayed a melting point of 210 to 213 °C.

Turning to `NCCn1c(NCCCc2ccccc2)nc(-c2ccncc2)cc1=O` (as salt: hydrochloride) [Compound 84, 3-(2-Amino-ethyl)-2-(3-phenyl-propylamino)-6-pyridin-4-yl-3H-pyrimidin-4-one], the melting point was in the range of 145 to 148 °C.

As for `COc1ccccc1CCNc1nc(-c2ccncc2)cc(=O)n1CCCN` (as salt: hydrochloride) [Compound 85, 3-(3-Amino-propyl)-2-[2-(2-methoxy-phenyl)-ethylamino]-6-pyridin-4-yl-3H-pyrimidin-4-one], the melting point lay within 198 to 201 °C.

For `NCCCCCn1c(NCCc2ccccc2)nc(-c2ccncc2)cc1=O` (as salt: hydrochloride) [Compound 88, 3-(5-Amino-pentyl)-2-phenethylamino-6-pyridin-4-yl-3H-pyrimidin-4-one], the melting point was in the range of 178 to 180 °C.

`NCCCCn1c(NCCc2ccccc2)nc(-c2ccncc2)cc1=O` (as salt: hydrochloride) [Compound 89, 3-(4-Amino-butyl)-2-phenethylamino-6-pyridin-4-yl-3H-pyrimidin-4-one]: the melting point lay in the range of 170 to 175 °C.

`NCCCCNc1nc(-c2ccncc2)cc(=O)n1Cc1ccccc1` (as salt: hydrochloride) [Compound 90, 2-(4-Amino-butylamino)-3-benzyl-6-pyridin-4-yl-3H-pyrimidin-4-one]: the melting point is 163 to 168 °C (dec.).

Compound `Cn1c(NCC=Cc2ccccc2)nc(-c2ccncc2)cc1=O` (as salt: hydrochloride) [Compound 95, 3-Methyl-2-(3-phenyl-allylamino)-6-pyridin-4-yl-3 H-pyrimidin-4-one] registered a melting point of 198 to 200 °C.

`Cn1c(NCCCc2ccccc2)nc(-c2ccncc2)cc1=O` (as salt: hydrochloride) [Compound 96, 3-Methyl-2-(3-phenyl-propylamino)-6-pyridin-4-yl-3H-pyrimidin-4-one] displayed a melting point of 187 to 189 °C.

The compound `Cn1c(NCCc2c[nH]c3ccccc23)nc(-c2ccncc2)cc1=O` (as salt: oxalate) [Compound 29, 2-[[2-(1H-indol-3-yl)ethyl]amino]-3-methyl-6-pyridin-4-ylpyrimidin-4(3H)-one] gave a melting point of 217 to 218 °C.

`CCNc1nc(-c2ccncc2)cc(=O)n1C` (as salt: oxalate) [Compound 36, 2-(ethylamino)-3-methyl-6-pyridin-4-ylpyrimidin-4(3H)-one] yielded a melting point of 239 to 241 °C.

With `Cn1c(N2CCCCC2)nc(-c2ccncc2)cc1=O` (as salt: tartrate) [Compound 38, 2-(piperidin-1-yl)-3-methyl-6-pyridin-4-ylpyrimidin-4(3H)-one], the melting point lay in the range of 228 to 230 °C.

`COc1ccccc1CCNc1nc(-c2ccncc2)cc(=O)n1C` [Compound 4, 2-[[2-(2-methoxyphenyl)ethyl]amino]-3-methyl-6-pyridin-4-ylpyrimidin-4(3H)-one] gave a melting point of 149.2 to 149.5 °C.

Compound `Cn1c(NCCc2ccccc2F)nc(-c2ccncc2)cc1=O` [Compound 5, 2-[[2-(2-fluorophenyl)ethyl]amino]-3-methyl-6-pyridin-4-ylpyrimidin-4(3H)-one] displayed a melting point of 184 to 187.2 °C.

Regarding `Cn1c(NCCc2cccc(F)c2)nc(-c2ccncc2)cc1=O` [Compound 6, 2-[[2-(3-fluorophenyl)ethyl]amino]-3-methyl-6-pyridin-4-ylpyrimidin-4(3H)-one], the melting point fell in the range of 158.9 to 159.2 °C.

With `Cn1c(NCCc2ccc(F)cc2)nc(-c2ccncc2)cc1=O` [Compound 7, 2-[[2-(4-fluorophenyl)ethyl]amino]-3-methyl-6-pyridin-4-ylpyrimidin-4(3H)-one], the melting point lay within 178.8 to 178.9 °C.

For the compound `Cn1c(NCCc2ccccc2Cl)nc(-c2ccncc2)cc1=O` [Compound 9, 2-[[2-(2-chlorophenyl)ethyl]amino]-3-methyl-6-pyridin-4-ylpyrimidin-4(3H)-one], the melting point lay in the range of 175.2 to 175.4 °C.

As to `Cn1c(NCCc2ccc(N)cc2)nc(-c2ccncc2)cc1=O` [Compound 11, 2-[[2-(4-aminophenyl)ethyl]amino]-3-methyl-6-pyridin-4-ylpyrimidin-4(3H)-one], the melting point was 197.3 to 197.5 °C.

With `COc1ccc(CCNc2nc(-c3ccncc3)cc(=O)n2C)cc1OC` [Compound 12, 2-[[2-(3,4-dimethoxyphenyl)ethyl]amino]-3-methyl-6-pyridin-4-ylpyrimidin-4(3H)-one], the melting point lay within 187 to 187.1 °C.

Consider `COc1ccc(OC)c(CCNc2nc(-c3ccncc3)cc(=O)n2C)c1` [Compound 13, 2-[[2-(2,5-dimethoxyphenyl)ethyl]amino]-3-methyl-6-pyridin-4-ylpyrimidin-4(3H)-one], for which the melting point is 180.9 to 181.3 °C.

`Cn1c(NCCc2ccc(Cl)cc2)nc(-c2ccncc2)cc1=O` [Compound 14, 2-[[2-(4-chlorophenyl)ethyl]amino]-3-methyl-6-pyridin-4-ylpyrimidin-4(3H)-one] returned a melting point of 165.3 to 165.5 °C.

As to `Cn1c(NCCc2ccc(O)cc2)nc(-c2ccncc2)cc1=O` [Compound 15, 2-[[2-(4-hydroxyphenyl)ethyl]amino]-3-methyl-6-pyridin-4-ylpyrimidin-4(3H)-one], the melting point was in the range of 257.4 to 257.9 °C.

Broadly, the melting point is the temperature, or range, at which the solid turns liquid.
